Measurements as given in the supplement of paper PMC10307832.

Tests used:
Assay in all cases: relative viability (nuclei count vs DMSO), 5 days (fraction); higher = more cells survive
[1] = compound: O=C(O)c1ccc2c(c1)nc(Nc1cccc(Cl)c1)c1ccncc12 [Silmitasertib] + Nc1nc2[nH]cc(CCc3ccc(C(=O)N[C@@H](CCC(=O)O)C(=O)O)cc3)c2c(=O)[nH]1 [Pemetrexed] (partner 0.2 µM)
In short: (§1)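 The day after seeding in 1536-well plates, lung cancer cell lines were treated by pin tool with a single drug, or with a fixed anchor-drug dose together with five library-drug doses (not always all listed) in √10 steps. After 5 days, a combined fix-and-stain solution (final 0.05% Triton X-100, 1% formaldehyde, 1 ug/ml Hoechst) was added. Nuclei counted on 4× images gave relative viability as treated counts over vehicle counts, reported as the median of duplicate plates.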

[2] = compound: O=C(O)c1ccc2c(c1)nc(Nc1cccc(Cl)c1)c1ccncc12 [Silmitasertib] + C[C@]1(O)C[C@@H](c2nc(-c3ccc4ccc(-c5ccccc5)nc4c3)c3c(N)nccn32)C1 [Linsitinib] (partner 1 µM)
In short: as §1

[3] = compound: O=C(O)c1ccc2c(c1)nc(Nc1cccc(Cl)c1)c1ccncc12 [Silmitasertib] + C[C@@H](Oc1cc(-c2cnn(C3CCNCC3)c2)cnc1N)c1c(Cl)ccc(F)c1Cl [Crizotinib] (partner 1 µM)
In short: as §1

[4] = compound: O=C(O)c1ccc2c(c1)nc(Nc1cccc(Cl)c1)c1ccncc12 [Silmitasertib] + CC(=O)Nc1cccc(-n2c(=O)n(C3CC3)c(=O)c3c(Nc4ccc(I)cc4F)n(C)c(=O)c(C)c32)c1 [Trametinib] (partner 0.02 µM)
In short: as §1

Silmitasertib + Olaparib = compound: O=C(O)c1ccc2c(c1)nc(Nc1cccc(Cl)c1)c1ccncc12 [Silmitasertib] + O=C(c1cc(Cc2n[nH]c(=O)c3ccccc23)ccc1F)N1CCN(C(=O)C2CC2)CC1 [Olaparib] (partner 8 µM)
In short: as §1

Row | Cell Line | relative viability ([1]; first compound 0.04 µM) | relative viability ([1]; first compound 1.265 µM) | relative viability ([1]; first compound 4 µM) | relative viability ([2]; first compound 0.04 µM) | relative viability ([2]; first compound 1.265 µM) | relative viability ([2]; first compound 4 µM) | relative viability ([3]; first compound 0.04 µM) | relative viability ([3]; first compound 1.265 µM) | relative viability ([3]; first compound 4 µM) | relative viability ([4]; first compound 0.04 µM) | relative viability ([4]; first compound 1.265 µM) | relative viability ([4]; first compound 4 µM) | relative viability (Silmitasertib + Olaparib; first compound 0.04 µM) | relative viability (Silmitasertib + Olaparib; first compound 1.265 µM) | relative viability (Silmitasertib + Olaparib; first compound 4 µM) | relative viability ([1]; first compound 0.4 µM) | relative viability ([2]; first compound 0.4 µM) | relative viability ([3]; first compound 0.4 µM) | relative viability ([4]; first compound 0.4 µM) | relative viability (Silmitasertib + Olaparib; first compound 0.4 µM)
1 | NCI-H1915 | 0.503 | 0.429 | 0.302 | 1.13 | 1.18 | 0.956 | 0.888 | 0.931 | 0.718 | 0.334 | 0.304 | 0.254 | 0.262 | 0.263 | 0.201 | – | – | – | – | –
2 | NCI-H1944 | 0.551 | 0.615 | 0.77 | 1.17 | 0.968 | 1.25 | 1.1 | 0.965 | 1.03 | 0.419 | 0.481 | 0.429 | 0.404 | 0.495 | 0.587 | 0.447 | 1.15 | 0.856 | 0.403 | 0.33
3 | NCI-H1975 | 0.294 | 0.287 | 0.219 | 1.07 | 0.878 | 0.686 | 0.954 | 0.929 | 0.816 | 0.613 | 0.297 | 0.315 | 0.818 | 0.658 | 0.832 | – | 0.842 | 0.795 | – | –
4 | NCI-H1993 | 0.616 | 0.598 | 0.505 | 0.597 | 0.695 | 0.758 | 0.956 | 0.803 | 0.644 | 0.584 | 0.578 | 0.586 | 1.24 | 0.96 | 0.831 | 0.524 | 0.747 | 0.899 | 0.609 | 0.804
5 | NCI-H2009 | 1.09 | 1.13 | 0.908 | 1.27 | 1.16 | 0.77 | 1.09 | 1.1 | 0.97 | 0.342 | 0.254 | 0.239 | 0.747 | 0.756 | 0.595 | 0.98 | 1.2 | 1.04 | 0.271 | 0.638
6 | NCI-H2023 | 0.278 | 0.266 | 0.21 | 0.741 | 0.532 | 0.472 | 0.663 | 0.513 | 0.542 | 0.728 | 0.373 | 0.535 | 0.532 | 0.46 | 0.468 | 0.187 | 0.62 | 0.585 | 0.569 | 0.363
7 | NCI-H2085 | 1.02 | 0.833 | 0.867 | 0.95 | 0.828 | 0.806 | 0.871 | 0.806 | 0.77 | 0.641 | 0.423 | 0.386 | 0.805 | 0.731 | 0.684 | 0.647 | 0.8 | 0.777 | 0.454 | 0.529
8 | NCI-H2087 | 0.604 | 0.665 | 0.542 | 0.991 | 0.608 | 0.408 | 0.88 | 0.853 | 0.428 | 0.26 | 0.135 | 0.134 | 0.614 | 0.465 | 0.38 | 0.64 | 0.75 | 0.793 | 0.186 | 0.217
9 | NCI-H2126 | 0.734 | 0.672 | 0.491 | 0.722 | 0.626 | 0.585 | 1.02 | 0.99 | 1.12 | 0.578 | 0.467 | 0.501 | 0.914 | 0.821 | 0.818 | 0.623 | 0.737 | 0.996 | 0.521 | 0.73
10 | NCI-H2228 | 0.331 | 0.333 | 0.307 | 0.787 | 0.786 | 0.628 | 0.497 | 0.449 | 0.374 | 0.554 | 0.456 | 0.464 | 0.713 | 0.474 | 0.668 | 0.337 | 0.548 | 0.495 | 0.375 | 0.208
11 | NCI-H2347 | 0.44 | 0.363 | 0.42 | 1.01 | 0.967 | 0.848 | 0.792 | 0.725 | 0.567 | 0.264 | 0.277 | 0.266 | 0.602 | 0.56 | 0.507 | – | 0.952 | 0.683 | 0.263 | 0.52
12 | NCI-H2405 | 1.12 | 0.73 | 0.86 | 1.16 | 0.856 | 0.887 | 0.822 | 0.745 | 0.803 | 0.681 | 0.619 | 0.775 | 0.896 | 0.851 | 0.756 | 1 | 0.783 | 0.692 | 0.605 | 0.717
13 | NCI-H3122 | 0.203 | 0.185 | 0.194 | 0.957 | 0.948 | 1.15 | 0.305 | 0.256 | 0.262 | 0.204 | 0.212 | 0.264 | 0.675 | 0.616 | 0.644 | 0.189 | 0.953 | 0.262 | 0.174 | 0.371
14 | PC-3 [JPC-3] | 1.18 | 1.15 | 0.6 | 0.98 | 1.03 | 0.986 | 0.968 | 1.03 | 0.999 | 0.716 | 0.795 | 0.632 | 1.22 | 1.12 | 1.13 | 0.919 | 0.964 | 0.868 | 0.661 | 0.737
15 | PC-14 | 0.134 | 0.122 | 0.113 | 0.966 | 1.01 | 0.993 | 0.932 | 0.888 | 0.847 | 1.07 | 0.802 | 0.633 | 0.346 | 0.34 | 0.272 | – | 0.999 | 0.897 | – | 0.163
16 | RERF-LC-KJ | 0.488 | 0.439 | 0.342 | 0.858 | 0.689 | 0.672 | 0.77 | 0.736 | 0.711 | 0.926 | 0.661 | 0.541 | 0.909 | 0.785 | 0.74 | 0.445 | 0.876 | 0.817 | 0.722 | 0.829
